Data set [1] deals with Enterobacter cloacae. The data set can be described thus: Minimum inhibitory concentration against Enterobacter cloacae; 40-80 ug/mL. It counts as functional.
In data set [2] the test system is Pseudomonas aeruginosa. The data set can be described thus: Minimum inhibitory concentration against Pseudomonas aeruginosa; 40-80 ug/mL. It counts as functional.
The subject of data set [3] is Serratia marcescens. The data set can be described thus: Minimum inhibitory concentration against Serratia marcescens; 40-80 ug/mL. The format is functional.
For data set [4], the system named is Staphylococcus aureus. The data set can be described thus: Minimum inhibitory concentration against Staphylococcus aureus;. The format is functional.
A short description of data set [5]: Inhibition of hydrolysis of nitrocefin after 5 min pre-incubation with TEM-1 beta-lactamase (class 1).
Data set [6] in a line: Half life at a pH of 9 and temperature 37 degree. It counts as ADME. The following applies: pH 9.
Data set [7] is described as follows: Antibacterial activity expressed as binding to PBP 1a of Pseudomonas aeruginosa.
Data set [8] can be described thus: Antibacterial activity expressed as binding to PBP 1b of Pseudomonas aeruginosa.
The nature of data set [9]: Antibacterial activity expressed as binding to PBP 2 of Pseudomonas aeruginosa.
Data set [10] in a line: Antibacterial activity expressed as binding to PBP 3 of Pseudomonas aeruginosa.
Data set [11] is described as follows: Antibacterial activity expressed as binding to PBP 4 of Pseudomonas aeruginosa.
A short description of data set [12]: Antibacterial activity expressed as binding to PBP 5 of Pseudomonas aeruginosa.
The subject of data set [13] is Staphylococcus aureus. The data set can be described thus: Minimum inhibitory concentration against Staphylococcus aureus; No activity. It counts as functional, organism-based.
A short description of data set [14]: Time dependent inhibition of hydrolysis of nitrocefin after 5 min pre-incubation with TEM-1 beta-lactamase (class 1).

For eight compounds, MIC, IC50 and half-life results are on record in ChEMBL document CHEMBL1148249, “Design and synthesis of bridged gamma-lactams as analogues of beta-lactam antibiotics” (Bioorg Med Chem Lett, 2004).

For orientation: MIC means the least concentration at which growth counts as inhibited. One may read the IC50 as the midpoint of a concentration-inhibition curve. A lower IC50 goes with greater potency in that assay. As usually defined, the half-life is how long it takes for the measured level to halve. The low end stands for fast loss, the high end for slow loss.

≈ marks a conversion by molar mass, not a printed value. Calls of active or inactive are those of the source. The rule behind the calls is not given here.

Consider `COC1=C[C@@H]2CC(=O)N(C2)C1C(=O)O` (stereo partly specified), for which the MIC in data set [1], in data set [2], in data set [3] and in data set [4] was 80 µg/mL (≈ 406 µM) throughout. This compound gave an IC50 in data set [5] of 280 µM. The half-life in data set [6] came out at 14 min.
For the compound `CC[C@@H]1C(=O)N2C[C@@H]1CC(OC)=C2C(=O)O`, the MIC in data set [1], in data set [2] and in data set [3] was 80 µg/mL (≈ 355 µM) in each case. Besides, the IC50 in data set [7] was greater than 50 µM; in data set [8], greater than 50 µM; in data set [9] it was 50 µM; in data set [10], 5 µM; in [11] it was 5 µM; in data set [12], 50 µM. In addition, the midpoint of inhibition in [14], the IC50, lay at 700 µM. Further, the MIC result in data set [13] is “inactive”. For the same compound, the half-life in data set [6] is 25 min.
For the compound `O=C(O)[C@H]1/C(=C/CO)O[C@@H]2CC(=O)N21` [CLAVULANIC ACID], inhibition in [14] was half-maximal at 0.065 µM (IC50). Further, the half-life in data set [6] came to 120 min.
`CC(O)[C@H]1C(=O)N2C(C(=O)O)=C(SCCNC=N)C[C@H]12` (single isomer, unassigned) [IMIPENEM ANHYDROUS]: the half-maximal inhibitory concentration (IC50) is 0.3 µM in data set [7]; 0.6 µM in data set [8]; less than 0.6 µM in [9]; less than 0.1 µM in [11]; 2.3 µM in data set [12].
On to `COC1=CC2CC(=O)N(C2)C1C(=O)OCc1ccc([N+](=O)[O-])cc1` (stereo unspecified), for which the MIC entry in data set [13] was “inactive”. This compound also had an IC50 in data set [5] of 45 µM.
Consider `CC[C@@H]1C(=O)N2C[C@@H]1CC(OC)=C2C(=O)OCc1ccc([N+](=O)[O-])cc1`, for which the MIC entry in data set [13] was “inactive”. Also, the IC50 in [5] is greater than 1000 µM. The same compound gave a half-life in [6] of 42 min.
Take `COC1=C(C(=O)OCc2ccc([N+](=O)[O-])cc2)N2C[C@@H](CC2=O)C1`: in data set [13], the MIC result was “inactive”. The same compound yielded an IC50 in data set [5] of 54 µM. Further, the half-life in data set [6] came to 6 min.
As to `CC[C@@H]1C(=O)N2C[C@@H]1C=C(OC)C2C(=O)OCc1ccc([N+](=O)[O-])cc1` (stereo partly specified), the MIC entry in data set [13] was “inactive”. This compound had an IC50 in [14] of 420 µM. The half-life in data set [6] was 55 min.
